Experiment [1] deals with T1, AmPDH (Agaricus meleagris pyranose dehydrogenase, pdh1) (Macropsalliota meleagris, UniProt Q3L245, H128Y).
T1 construct: monomeric glycoprotein about 90 kDa, 64 kDa deglycosylated
Briefly: steady-state kinetics. To be noted: apparent; electron acceptor; 25 mM D-glucose as donor; pH 4; 30 °C; read-out: H103Y / K m /. It is filed as biochemical. The text has this: steady-state kinetics on AmPDH (Agaricus meleagris pyranose dehydrogenase, pdh1)

In experiment [2] the target is T1, AmPDH (Agaricus meleagris pyranose dehydrogenase, pdh1). Briefly: UV-vis spectra before and after TCA/acetone precipitation. It counts as binding. Particulars: non-covalent, tightly bound; pH 7.5 spectra.
The target in experiment [3] is T2, AmPDH (Agaricus meleagris pyranose dehydrogenase, pdh1) (Macropsalliota meleagris, UniProt Q3L245).
T2 construct: monomeric glycoprotein about 90 kDa, 64 kDa deglycosylated
The experiment is described as above. It counts as binding. To be noted: covalent (to H103); pH 7.5 spectra.

Experiment [4] deals with T1, AmPDH (Agaricus meleagris pyranose dehydrogenase, pdh1). Briefly: steady-state kinetics, ferrocenium assay. It counts as biochemical. To be noted: apparent; electron acceptor; 25 mM D-glucose as donor; pH 8.5; 30 °C; read-out: H103Y / K m /. The text has this:
steady-state kinetics, ferrocenium assay on AmPDH (Agaricus meleagris pyranose dehydrogenase, pdh1)

T1 sequence (Q3L245 26-602 H128Y): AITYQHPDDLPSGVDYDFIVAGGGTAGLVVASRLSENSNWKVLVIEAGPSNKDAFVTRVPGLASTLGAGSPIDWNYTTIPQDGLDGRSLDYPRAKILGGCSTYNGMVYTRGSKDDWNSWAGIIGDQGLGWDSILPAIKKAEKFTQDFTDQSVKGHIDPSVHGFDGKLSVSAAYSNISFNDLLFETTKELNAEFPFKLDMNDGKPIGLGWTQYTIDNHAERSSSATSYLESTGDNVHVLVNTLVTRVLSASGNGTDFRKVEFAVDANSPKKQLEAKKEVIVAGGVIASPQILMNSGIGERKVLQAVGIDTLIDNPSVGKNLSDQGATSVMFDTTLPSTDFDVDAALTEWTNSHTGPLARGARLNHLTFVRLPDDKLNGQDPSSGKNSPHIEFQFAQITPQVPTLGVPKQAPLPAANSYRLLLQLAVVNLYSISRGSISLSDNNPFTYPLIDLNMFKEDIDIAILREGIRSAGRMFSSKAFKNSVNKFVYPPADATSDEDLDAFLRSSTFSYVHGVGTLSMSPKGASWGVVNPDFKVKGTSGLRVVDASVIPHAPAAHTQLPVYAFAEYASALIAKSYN
T2 sequence (Q3L245 26-602): as the sequence (Q3L245 26-602 H128Y) above, with Y103H counted along it

On to `O=C1C=CC(=O)C=C1` [1,4-BQ, 1,4-benzoquinone], for which the Km in experiment [1] stood at 3640 ± 470 µM.

As for `Cc1cc2nc3c(=O)[nH]c(=O)nc-3n(C[C@H](O)[C@H](O)[C@H](O)COP(=O)(O)OP(=O)(O)OC[C@H]3O[C@@H](n4cnc5c(N)ncnc54)[C@H](O)[C@@H]3O)c2cc1C` [FAD], the entries for the “UV-vis spectra before and after TCA/acetone precipitation” value in experiment [2] and in experiment [3] were “the variant H103Y carries a tightly but non-covalently bound FAD cofactor” and “the wild-type protein did not release the covalently bound FAD”, respectively.

With `F[P-](F)(F)(F)(F)F.[Fe+3].c1cc[cH-]c1.c1cc[cH-]c1` [Fc+PF6, ferrocenium hexafluorophosphate], in experiment [4], the Km came to 100 ± 10 µM.

The record behind these values is paper PMC3948749, “Engineering of Pyranose Dehydrogenase for Increased Oxygen Reactivity” (PLoS ONE, 2014).
